Tests used:
[1] = biological target: T1, Estrogen receptor (Homo sapiens) (UniProt P03372); experiment: Displacement of fluorescein-labeled estradiol from human recombinant ERalpha at 1 uM by fluorescence polarization assay
T1 sequence (whole entry): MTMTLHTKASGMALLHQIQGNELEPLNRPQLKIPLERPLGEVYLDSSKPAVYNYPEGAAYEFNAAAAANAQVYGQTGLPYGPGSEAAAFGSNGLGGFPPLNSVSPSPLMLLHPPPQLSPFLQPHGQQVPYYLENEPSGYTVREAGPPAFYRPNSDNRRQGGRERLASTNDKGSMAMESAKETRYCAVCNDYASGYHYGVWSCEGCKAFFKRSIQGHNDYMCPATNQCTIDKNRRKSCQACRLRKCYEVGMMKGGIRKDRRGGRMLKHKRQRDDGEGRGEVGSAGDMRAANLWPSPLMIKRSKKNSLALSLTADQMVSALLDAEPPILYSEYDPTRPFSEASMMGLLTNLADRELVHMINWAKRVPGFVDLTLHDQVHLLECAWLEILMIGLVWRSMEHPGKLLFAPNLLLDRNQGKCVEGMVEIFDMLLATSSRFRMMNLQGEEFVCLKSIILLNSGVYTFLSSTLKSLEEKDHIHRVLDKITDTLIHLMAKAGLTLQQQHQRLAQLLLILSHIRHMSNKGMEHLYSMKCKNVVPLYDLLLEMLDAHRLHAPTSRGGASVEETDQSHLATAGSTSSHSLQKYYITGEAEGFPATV

Estrogen receptor beta [2] = biological target: T2, Estrogen receptor beta (Homo sapiens, UniProt Q92731); experiment: Displacement of fluorescein-labeled estradiol from human recombinant ERbeta at 0.2 uM by fluorescence polarization assay
Estrogen receptor beta [3] = biological target: T2, Estrogen receptor beta; experiment: Displacement of fluorescein-labeled estradiol from human recombinant ERbeta at 5 uM by fluorescence polarization assay
Estrogen receptor beta [4] = biological target: T2, Estrogen receptor beta; experiment: Displacement of fluorescein-labeled estradiol from human recombinant ERbeta at 1 uM by fluorescence polarization assay
[5] = biological target: T1, Estrogen receptor (Homo sapiens); experiment: Displacement of fluorescein-labeled estradiol from human recombinant ERalpha at 5 uM by fluorescence polarization assay
[6] = biological target: T1, Estrogen receptor (Homo sapiens); experiment: Displacement of fluorescein-labeled estradiol from human recombinant ERalpha at 0.2 uM by fluorescence polarization assay

T2 sequence (Q92731 whole entry): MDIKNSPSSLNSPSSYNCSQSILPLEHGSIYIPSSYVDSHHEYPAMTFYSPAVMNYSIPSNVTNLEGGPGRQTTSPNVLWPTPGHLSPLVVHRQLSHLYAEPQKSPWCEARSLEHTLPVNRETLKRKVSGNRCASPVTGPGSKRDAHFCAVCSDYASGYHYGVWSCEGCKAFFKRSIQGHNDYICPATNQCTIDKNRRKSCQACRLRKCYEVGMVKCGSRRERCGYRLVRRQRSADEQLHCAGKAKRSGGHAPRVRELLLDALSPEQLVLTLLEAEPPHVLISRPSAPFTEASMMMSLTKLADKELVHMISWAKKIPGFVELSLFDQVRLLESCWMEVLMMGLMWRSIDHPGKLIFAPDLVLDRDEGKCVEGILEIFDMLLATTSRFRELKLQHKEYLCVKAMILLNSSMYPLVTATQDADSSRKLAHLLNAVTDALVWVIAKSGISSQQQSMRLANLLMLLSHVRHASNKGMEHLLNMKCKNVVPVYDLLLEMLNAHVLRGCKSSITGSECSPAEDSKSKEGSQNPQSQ

Row | Compound | Activity [1] | Activity (Estrogen receptor beta [2]) | Activity (Estrogen receptor beta [3]) | Activity (Estrogen receptor beta [4]) | Activity [5] | Activity [6]
1 | CCCC[C@@H]1C[C@H]1[C@@H](NC(=O)c1ccco1)c1ccccc1 | 65% | 8% | 20% | 7% | 91% | 63%
2 | CCCC[C@@H]1C[C@H]1[C@@H](NS(=O)(=O)c1cccc2cccnc12)c1ccc(-c2ccccc2)cc1 | 74% | 28% | 22% | 18% | 91% | 52%
3 | C=C(CCCC)[C@@H](NC(=O)c1ccc(C(F)(F)F)cc1)c1ccccc1 | 21% | -8% | 3% | -7% | 27% | -61%
4 | CCC/C=C(\CCC)[C@@H](NP(=O)(c1ccccc1)c1ccccc1)c1ccc(C(F)(F)F)cc1 | 65% | 8% | 27% | 16% | 79% | 55%
5 | C=C(CCCC)[C@@H](NC(=O)c1cccs1)c1ccccc1 | 40% | -1% | 8% | -3% | 54% | 67%
6 | CCC/C=C(\CCC)[C@@H](NP(=O)(c1ccccc1)c1ccccc1)c1ccc(-c2ccccc2)cc1 | 11% | 19% | -25% | -10% | -77% | 46%
7 | CCCC[C@@H]1C[C@H]1[C@@H](NC(=O)c1cccs1)c1ccc(-c2ccccc2)cc1 | 54% | -1% | 5% | 8% | 37% | 58%
8 | CCC/C=C(\CCC)[C@@H](NS(=O)(=O)c1ccc(C(Cl)(Cl)Cl)cc1)c1ccccc1 | 61% | 6% | 42% | 13% | 95% | 42%
9 | CCC/C=C(\CCC)[C@@H](NS(=O)(=O)c1ccc(C(F)(F)F)cc1)c1ccc(-c2ccccc2)cc1 | 14% | 7% | 7% | 8% | 46% | 72%
10 | CCC/C=C(\CCC)[C@@H](NS(=O)(=O)c1ccccc1)c1ccc(C(F)(F)F)cc1 | 66% | 13% | 30% | 10% | 102% | 70%
11 | CCC/C=C(\CCC)[C@@H](NC(=O)CCc1ccccc1)c1ccc(C(F)(F)F)cc1 | 31% | 8% | 17% | 13% | 67% | 56%
12 | CCC[C@@H]1C[C@@]1(CCC)[C@@H](NC(=O)Cc1ccccc1)c1ccc(-c2ccccc2)cc1 | 17% | -8% | -5% | -6% | -6% | 7%
13 | C=C(CCCC)[C@@H](NC(=O)C(C)(C)C)c1ccccc1 | 13% | -10% | -4% | -12% | 13% | -67%
14 | CCCC[C@@H]1C[C@@]1(C)[C@@H](NS(=O)(=O)c1cccc2cccnc12)c1ccc(-c2ccccc2)cc1 | 52% | -5% | 2% | -4% | 41% | 52%
15 | C=C(CCCC)[C@@H](NC(=O)c1ccc(C(=O)OC)cc1)c1ccccc1 | 24% | -9% | 5% | -7% | 37% | 21%
16 | CCCC[C@@H]1C[C@H]1C(NC(=O)c1ccco1)c1ccc(C(=O)OC)cc1 (single isomer, unassigned) | 84% | 8% | 15% | 2% | 89% | 64%
17 | C=C(CCCC)[C@@H](NC(=O)c1ccc(-c2ccccc2)cc1)c1ccccc1 | 35% | 0% | 8% | 2% | 46% | -33%
18 | CCCC[C@@H]1C[C@H]1[C@@H](NC(=O)c1cccnc1)c1ccc(-c2ccccc2)cc1 | 63% | 2% | 10% | 2% | 53% | 64%
19 | CCC/C=C(\CCC)[C@@H](NC(=O)Cc1ccccc1)c1ccc(C(=O)OC)cc1 | 22% | -11% | 13% | -2% | 48% | 3%

Row | Compound | Activity [1] | Activity (Estrogen receptor beta [2]) | Activity (Estrogen receptor beta [3]) | Activity (Estrogen receptor beta [4]) | Activity [5] | Activity [6]
20 | CCC/C=C(\CCC)[C@@H](NS(=O)(=O)c1cccc2cccnc12)c1ccc(C(=O)OC)cc1 | 111% | 7% | 42% | 24% | 54% | 54%
21 | CCCC[C@@H]1C[C@H]1[C@@H](NC(=O)c1ccccc1)c1ccc(-c2ccccc2)cc1 | 77% | 26% | 46% | 31% | – | 72%
22 | CCC/C=C(\CCC)[C@@H](NP(=O)(c1ccccc1)c1ccccc1)c1ccccc1 | 25% | 6% | 14% | 9% | 72% | 47%
23 | CCC/C=C(\CCC)[C@@H](NC(=O)c1ccc(C(=O)OC)cc1)c1ccc(C(=O)OC)cc1 | 24% | -13% | 8% | -3% | 38% | -14%
24 | CCCCCC/C=C(\C)[C@@H](NC(=O)c1ccc(C(F)(F)F)cc1)c1ccc(-c2ccccc2)cc1 | 20% | -7% | -3% | -6% | 1% | 29%
25 | CCCC[C@@H]1C[C@H]1[C@@H](NC(=O)c1ccccc1)c1ccc(C(F)(F)F)cc1 | 33% | -9% | 13% | 1% | 48% | 32%
26 | CCC/C=C(\CCC)[C@@H](NC(=O)c1ccc(-c2ccccc2)cc1)c1ccc(C(=O)OC)cc1 | 25% | -1% | 4% | -3% | 27% | 27%
27 | CCCC[C@@H]1C[C@H]1[C@@H](NC(=O)c1ccc(-c2ccccc2)cc1)c1ccc(-c2ccccc2)cc1 | 42% | 0% | 4% | 6% | -6% | 52%
28 | CCC/C=C(\CCC)[C@@H](NC(=O)c1cccs1)c1ccc(C(F)(F)F)cc1 | 31% | 9% | 19% | 12% | 73% | 43%
29 | CCC/C=C(\CCC)[C@@H](NC(=O)C(C)(C)C)c1ccc(C(=O)OC)cc1 | 42% | 1% | 10% | -4% | 63% | 27%
30 | CCC/C=C(\CCC)[C@@H](NS(=O)(=O)c1ccc(C(F)(F)F)cc1)c1ccc(C(=O)OC)cc1 | 86% | 15% | 43% | 29% | 90% | 63%
31 | CCC/C=C(\CCC)[C@@H](NC(=O)c1ccccc1)c1ccc(C(=O)OC)cc1 | 52% | 1% | 11% | 28% | 78% | 0%
32 | CCCC[C@@H]1C[C@H]1[C@@H](NC(=O)c1ccco1)c1ccc(-c2ccccc2)cc1 | 57% | -2% | 13% | 0% | 54% | 58%
33 | CCC/C=C(\CCC)[C@@H](NC(=O)CC(C)C)c1ccccc1 | 84% | -4% | 22% | 3% | 110% | 69%
34 | CCCC[C@@H]1C[C@H]1[C@@H](NC(=O)c1ccco1)c1ccc(C(F)(F)F)cc1 | 15% | 0% | 22% | 2% | 57% | 6%
35 | CCC[C@@H]1C[C@@]1(CCC)[C@@H](NC(=O)c1ccco1)c1ccc(C(Cl)(Cl)Cl)cc1 | 39% | -2% | 25% | 5% | 73% | 26%
36 | CCC/C=C(\CCC)[C@@H](NC(=O)c1cccs1)c1ccc(C(=O)OC)cc1 | 73% | 5% | 31% | 13% | 86% | 48%
37 | CCC/C=C(\CCC)[C@@H](NC(=O)c1ccccc1)c1ccccc1 | 56% | 8% | 17% | 6% | 82% | 51%

Source: ChEMBL document CHEMBL1137758, “Biphenyl C-cyclopropylalkylamides: New scaffolds for targeting estrogen receptor beta” (Bioorg Med Chem Lett, 2009)
